Where two headings read alike, the source gives them in different places.
Columns and labels:
[1] = Particle size analysis (light obscuration and laser diffraction); type: physicochemical
Method: Particle size was analyzed by both light obscuration and laser diffraction methods. An Particle Sizing Systems AccuSizer 780 SIS system was used for the light obscuration method and Shimadzu SALD-7101 was used for the laser diffraction method.
The vials were vortexed for approximately 10 seconds and then sonicated in a sonic bath approximately 1 minute.
The vial was vortexed for approximately 10 seconds and then sonicated in a sonic bath for approximately 2 minutes. This suspension was used for laser diffraction analysis. Unused suspension was poured into a 125 mL particle-free plastic bottle, which was then filled to approximately 100 mL with filtered dispersant. The suspension was vortex for approximately 10 seconds and then sonicated in the sonic bath for approximately 2 minutes. This diluted suspension was used for light obscuration analysis.
A background test was first performed prior to analyzing particles on the AccuSizer 780 SIS. A new particle-free plastic bottle was filled with blank suspension solution by pumping from a reservoir, using a peristaltic pump, through a 0.22 μm Millipore filter and into the bottle. A background analysis was run to ensure the particle/mL count was below 100 particles/mL. […] Once the analysis was completed, the background data was removed and any measurement with less than four counts was removed.
To analyze particles on SALD-7101 using a batch cell, the analysis was started by choosing Manual Measurement. The refractive index was set as 1.5 to 1.7. The batch cell was filled with filtered dispersant just past the etched line. The blank measurement was ran. […] The measurements were executed, and the resulting graph with the highest level of confidence was selected; background was automatically accounted for.

[2] = Docetaxel dissolution study, USP Apparatus II (Paddle); type: physicochemical; conditions: for Docetaxel Dissolution: methanol/water 15/85, 37° C., pH 7
Method: At 5, 15, 30, 60, 120 and 225 minutes, a 5 mL aliquot was removed, filtered through a 0.22 μm filter, and analyzed on a UV/VIS spectrophotometer at 232 nm. Absorbance values of the samples were compared to those of standard solutions prepared in dissolution media to determine the amount of material dissolved.

[3] = BET surface area analysis; type: physicochemical
Method: As used herein, the “specific surface area” is the total surface area of the taxane particle per unit of taxane mass as measured by the Brunauer-Emmett-Teller (“BET”) isotherm (i.e.: the BET SSA). As will be understood by those of skill in the art, the “taxane particles” can include both agglomerated taxane particles and non-agglomerated taxane particles; since the SSA is determined on a per gram basis it takes into account both agglomerated and non-agglomerated taxane particles in the composition. The BET specific surface area test procedure is a compendial method included in both the United States Pharmaceopeia and the European Pharmaceopeia.
A known mass between 200 and 300 mg of the analyte was added to a 30 mL sample tube. […] The automated test was then carried out using the BETWIN® software package and the surface area of each sample was subsequently calculated.

[4] = Paclitaxel dissolution study, USP Apparatus II (Paddle); type: physicochemical; conditions: methanol/water 50/50 (v/v), 37° C., pH 7, 75 rpm
Method: Beads were transferred to a stainless steel mesh container and placed in the dissolution bath containing methanol/water 50/50 (v/v) media at 37° C., pH 7, and a USP Apparatus II (Paddle), operating at 75 rpm. At 10, 20, 30, 60, and 90 minutes, a 5 mL aliquot was removed, filtered through a 0.22 μm filter and analyzed on a U(V/V)is spectrophotometer at 227 nm. Absorbance values of the samples were compared to those of standard solutions prepared in dissolution media to determine the amount of material dissolved.

[5] = test system: PC-3 human prostate carcinoma; test: PC-3 prostate carcinoma xenograft, Study P-PPr-01-2015; type: in vivo, nude mouse; conditions: IV 30 mg/kg qwk×3
Method: Tumors were measured twice per week. Partial treatment outcome was based on percent tumor growth inhibition (% TGI), defined as the percent difference between the Day 32 median tumor volumes of treated and vehicle-control mice.

[6] = test system: MDA-MB-231 human breast cancer xenografts; conditions: for complete tumor regressions (animals): 30 mg/kg IV qwk×3; for animal deaths: 30 mg/kg IV qwk×3, 10 mice; for mean tumor weight: 30 mg/kg IV qwk×3, Day 29; for inhibition of growth of the xenografts: 30 mg/kg IV qwk×3, Day 29 vs vehicle; for % difference at nadir of response: 30 mg/kg IV qwk×3, Day 33; for tumor-free animals at the end of the study: 30 mg/kg IV qwk×3, Day 61; for tumor-free animals: IV treated group, Day 49
Text: Study Design: A total of 88 female NCr-nu/nu mice were implanted with MDA-MB-231 breast tumor fragments from an in vivo passage subcutaneously (SC) on the right flank. The day of tumor cell implantation (Aug. 4, 2016) was designated as Day 0.
The NanoPac™ and NanoDoce™ are suspensions. Prior to filling each syringe and between the injections of each animal, the test article was gently swirled/inverted. Intratumoral administration of the test material entailed the use of six needle tracks per tumor (27 G ½ inch needle). One sixth of the dose volume was injected as a slow bolus in each track, with ˜15 seconds pause before removing the needle slowly, and moving to the next injection site spaced over the surface of the tumor. The animals were observed once daily for mortality and moribundity. The mice were weighed and the tumor measurements were taken twice weekly starting on the first day of treatment. Length and width were measured for each tumor. Tumor volume was determined using the formula for an ellipsoid sphere: Length×Width^2/2=Volume(mm^3)
This formula was also used to calculate tumor weight, assuming unity density (1 mm^3=1 mg). Limit of tumor detection was 32 mg (4×4 mm). The experiment lasted for 61 days from the day of tumor implant. Animals whose weight decreased more than 30% from the weight on the first day of treatment or whose tumor reached 4,000 mg in weight, ulcerated, or sloughed off was euthanized prior to study termination.

[7] = test system: MX-1 human breast cancer xenografts; conditions: for animal deaths / animals euthanized: 30 mg/kg IV qwk×3, 10 mice; for inhibition of growth of the xenografts: 30 mg/kg IV qwk×3 vs vehicle
Text: Tumor model: A total of 88 female NCr-nu/nu mice were implanted with MX-1 breast tumor fragments from an in vivo passage subcutaneously (SC) on the right flank. The day of tumor cell implantation was designated as Day 0.
The NanoPac™ and NanoDoce™ are suspensions. Prior to filling each syringe and between the injections of each animal, the test article was gently swirled/inverted. Animals were observed once daily for mortality and moribundity. Adverse signs were documented by exception only. Body weights were collected twice weekly beginning on SD. Tumor measurements were taken twice weekly beginning on SD, using a digital caliper. Length and width were measured for each tumor. Tumor volume was determined using the formula for an ellipsoid sphere: Length×Width 2/2=Volume (mm^3). This formula was also used to calculate tumor weight, assuming unity density (1 mm^3=1 mg). Limit of tumor detection is 32 mg (4×4 mm). The experiment lasted for 63 days from the day of tumor implant. Animals whose weight decreased more than 30% from the weight on the first day of treatment or whose tumor reached 4,000 mg in weight, ulcerated, or sloughed off was euthanized prior to study termination.

[8] = test system: JIMT-1 human breast cancer xenografts; test: JIMT-1 human breast cancer xenograft study; type: in vivo, CB.17 SCID mice; conditions: 30 mg/kg iv qwk×3
Method: Test articles were as follows:
Adjust volume accordingly for body weight. […] Animals were monitored individually. […] When the endpoint is reached, the animals were euthanized.
Tumor growth inhibition was evaluated on D29 (the last day of dosing for animals receiving 5 admins, G1, 3, 4) at 1000 mm^3 and the study ended on D50 with a revised tumor volume endpoint of 600 mm^3 for overall survival analysis.

[9] = Paclitaxel concentration in JIMT-1 tumor tissue (LC/MS/MS); type: in vivo, CB.17 SCID mice; conditions: Group 5: 30 mg/kg, IV, qwk × 3; day 50, 35 days after last dose; individual animals
Method: The timing of the analysis for each group relative to the last day of drug administration is as follows: • 21 days after last dose for groups 1, 3 and 4; • 49 days for group 2; and • 35 days for group 5.
Tissue processing was carried out as follows: • 1. Control tumor tissue and tumor tissue samples were weighed and three volumes of water were added to each to yield samples with a dilution factor of 4. • 2. Tumor tissues were homogenized with a homogenizer FastPrep®-24 using a speed of 4.0 m/sec for 100 sec. • 3. 50 μL of control tumor tissue homogenate was added to separate wells of a 96 well plate for STDs, QC samples and blanks. • 4. To the control tumor tissue homogenates, 50 μL of the appropriate solution was added for STDs and QC samples (50 μL of diluent was added for blanks) • 5. For tumor tissue homogenate study samples, 50 μL of each sample was added to separate well of the 96-well plate and 50 μL aliquot of diluent was added to each tissue sample. • 6. To all samples, 200 μL of internal standard (200 ng/mL Warfarin) solution in ACN was added. • 7. The plate was vortexed vigorously for 10 minutes and then centrifuged for 10 minutes at 4000 rpm (Sorvall Legend X1R centrifuge, Thermo Scientific) at 15° C. • 8. After centrifugation, 100 μL aliquots of supernatant were transferred to a new 96-well plate containing 100 μL of water in each well. • 9. […]

With CC(=O)O[C@@]12CO[C@@H]1C[C@H](O)[C@@]1(C)C(=O)[C@H](O)C3=C(C)[C@@H](OC(=O)[C@H](O)[C@@H](NC(=O)OC(C)(C)C)c4ccccc4)C[C@@](O)([C@@H](OC(=O)c4ccccc4)[C@H]21)C3(C)C [Docetaxel Raw Material, docetaxel] the “Number Mean” value [1] was 1.58 um, the “Volume Mean” value [1] was 5.05 um and the “Docetaxel Dissolution” value ([2]; 0 minutes) was 0.0%. For the same compound, the “Docetaxel Dissolution” value ([2]; 5 minutes) was 3.2%, the “Docetaxel Dissolution” value ([2]; 15 minutes) was 6.9% and the “Docetaxel Dissolution” value ([2]; 30 minutes) was 11.2%. For the same compound, the “Docetaxel Dissolution” value ([2]; 60 minutes) was 16.4%, the “Docetaxel Dissolution” value ([2]; 120 minutes) was 22.4% and the “Docetaxel Dissolution” value ([2]; 225 minutes) was 26.8%. For the same compound, the “Dissolution (30 min)” value ([2]; methanol/water 15/85 (v/v), 37° C., pH 7, 75 rpm) was 11%.
For CC(=O)O[C@H]1C(=O)[C@@]2(C)[C@H]([C@H](OC(=O)c3ccccc3)[C@]3(O)C[C@H](OC(=O)[C@H](O)[C@@H](NC(=O)c4ccccc4)c4ccccc4)C(C)=C1C3(C)C)[C@]1(OC(C)=O)CO[C@@H]1C[C@@H]2O [Paclitaxel Raw Material, paclitaxel], the “Number Mean” value [1] was 1.16 um, the “Surface Area” value ([3]; BET) was 10.4 m^2/g and the BET surface area ([3]; Example 1) was 7.25 m^2/g. The “Dissolution (30 min)” value [4] was 18%.
For CC(=O)O[C@H]1C(=O)[C@@]2(C)[C@H]([C@H](OC(=O)c3ccccc3)[C@]3(O)C[C@H](OC(=O)[C@H](O)[C@@H](NC(=O)c4ccccc4)c4ccccc4)C(C)=C1C3(C)C)[C@]1(OC(C)=O)CO[C@@H]1C[C@@H]2O [paclitaxel], the TGI [5] was “significant TGI”, the survival extension [5] was “significantly improved survival extension” and the “complete tumor regressions (animals)” value [6] was “six”. The animal deaths [6] was “without animal deaths”, the mean tumor weight [6] was 118 mg and the “inhibition of growth of the xenografts” value [6] was “significantly inhibited the growth”. The “% difference at nadir of response” value [6] was −97.4%, the “tumor-free animals at the end of the study” value [6] was “three” and the tumor-free animals [6] was “three”. For the same compound, the “animal deaths / animals euthanized” value [7] was “without animal deaths”, the mean tumor weight ([7]; 30 mg/kg IV qwk×3, Day 24) was 309 mg and the “% difference at nadir of response” value ([7]; 30 mg/kg IV qwk×3, Day 31) was −86.0%. The “inhibition of growth of the xenografts” value [7] was “significantly inhibited the growth”, the TGI [8] was “significant TGI” and the survival extension [8] was “significantly improved survival extension”. For the same compound, the “Paclitaxel Concentration in tumor tissue” value [9] was “BQL < 1 ng/g”.
With CC(=O)O[C@@]12CO[C@@H]1C[C@H](O)[C@@]1(C)C(=O)[C@H](O)C3=C(C)[C@@H](OC(=O)[C@H](O)[C@@H](NC(=O)OC(C)(C)C)c4ccccc4)C[C@@](O)([C@@H](OC(=O)c4ccccc4)[C@H]21)C3(C)C [docetaxel] the “complete tumor regressions (animals)” value [6] was 10, the animal deaths [6] was “no animal deaths” and the mean tumor weight [6] was 16 mg. The “inhibition of growth of the xenografts” value [6] was “significantly inhibited the growth”, the “% difference at nadir of response” value [6] was −99.8% and the mean tumor volume ([6]; 30 mg/kg IV qwk×3, Day 40) was 0. The “tumor-free animals at the end of the study” value [6] was 10, the tumor-free animals [6] was “ten” and the “animal deaths / animals euthanized” value [7] was “two animals euthanized for body weight loss >30%”. The mean tumor weight ([7]; 30 mg/kg IV qwk×3, Day 28) was 0.9 mg, the “animals with completely regressed tumors” value ([7]; 30 mg/kg IV qwk×3, Day 31) was “nine” and the “surviving animals tumor-free at the end of the study” value ([7]; 30 mg/kg IV qwk×3, Day 63) was “eight”. For the same compound, the “inhibition of growth of the xenografts” value [7] was “significantly inhibited the growth”.

Reference: patent publication US12390459B2, “Methods for solid tumor treatment” (CRITITECH, INC., priority 2016, dated 2025)
